This is an account of results in patent US7670591B2, “Heteroaryl substituted benzoxazoles” (AstraZeneca AB, priority 2006, dated 2010).

One data set has as its target T1, synthetic Aβ 1-40 (Homo sapiens, UniProt P05067).
T1 construct: using synthetic Aβ 1-40 in 2.7 nM of
Description: Competition binding assay ([3H]PIB as radioligand). The protocol:
Competition binding was performed in 384-well FB filter plates using synthetic Aβ 1-40 in 2.7 nM of [^3H]PIB (or another ^3H-labeled radioligand when so mentioned) in phosphate buffer at pH 7.5, by adding various concentrations of non-radioactive compounds originally dissolved in DMSO. The binding mixture was incubated for 30 min at room temperature, followed by vacuum filtration, and subsequentially by washing twice with 1% Triton-X100. Scintillation fluid was thereafter added to the collected Aβ 1-40 on the filter plate, and the activity of the bound remaining radioligand ([^3H]PIB or another ^3H-labeled radioligand) was measured using 1450 Microbeta from PerkinElmer (FIG. 1). Specific binding was determined according to the competion binding assay described herein. The determined IC50's in the competion binding assays (using [^3H]PIB as radioligand) of 5 compounds of the present invention are shown in Table 2.

The target of data set [1] is T2, human synthetic Aβ 1-40 fibrils (Homo sapiens, UniProt P05067).
T2 construct: human synthetic Aβ 1-40 fibrils
T2 sequence (P05067 672-711 limits assumed): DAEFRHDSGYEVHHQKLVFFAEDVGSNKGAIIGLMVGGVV
Description: Saturation binding experiments. The conditions noted are these: amyloid Aβ 1-40 fibrils in vitro, AVG; for Kd: two site binding. The protocol: Saturation binding experiments were performed in 96-well polypropylene deep well plates. 2 μM human synthetic Aβ 1-40 fibrils in phosphate buffer pH 7.5, or buffer alone as control, were incubated with increasing concentration of a ^3H-labeled radioligand of the present invention for 1 hr at room temperature. The radioactivity still bound to the Aβ 1-40 fibrils at the end of the incubation was detected on FB filters after filtration in a Brandel apparatus using a wash buffer containing 0.1% Triton-X100. Results were corrected for nonspecific, nondisplaceable binding defined as the number of counts from wells without Aβ 1-40 fibrils (replaced with assay buffer).

For data set [2] the following is noted: cited from earlier work.
Setting [3] is: [3H]PIB as radioligand, Table 2.

Each structure is given as a SMILES string. Where two headings read alike, the source gives them in different places.

T1 sequence (P05067 672-711 limits assumed): as above

With `COc1ccc2nc(-c3ccc(N(C)C)nc3)oc2c1` [Example 1, 5-(6-Methoxy-1,3-benzoxazol-2-yl)-N,N-dimethylpyridin-2-amine], at synthetic Aβ 1-40 (setting [3]), the IC50 (in general, the concentration that inhibits the measured activity by half) amounted to 0.204 µM.

On to `CN(C)c1ccc(-c2nc3ccc(O)cc3o2)cn1` [Example 2, 2-[6-(Dimethylamino)pyridin-3-yl]-1,3-benzoxazol-6-ol], for which the IC50 at synthetic Aβ 1-40 (setting [3]) was 0.085 µM.

In the case of `CNc1ccc(-c2nc3ccc(OC)cc3o2)cn1` [Example 3, 5-(6-Methoxy-1,3-benzoxazol-2-yl)-N-methylpyridin-2-amine], on synthetic Aβ 1-40 (setting [3]), the 50% inhibitory concentration (IC50) came to 0.186 µM.

Consider `COc1ccc2nc(-c3ccc(N(C)C(C)=O)nc3)oc2c1` [Example 4, N-[5-(6-Methoxy-1,3-benzoxazol-2-yl)pyridin-2-yl]-N-methylacetamide], for which the concentration for half-maximal inhibition (IC50) at synthetic Aβ 1-40 (setting [3]) amounted to 15.7 µM.

As to `CNc1ccc(-c2nc3ccc(O)cc3o2)cn1` [Example 5, 2-[6-(Methylamino)pyridin-3-yl]-1,3-benzoxazol-6-ol], the IC50 turned out to be 0.182 µM at synthetic Aβ 1-40 (setting [3]) and 0.182 µM on synthetic Aβ 1-40 (amyloid Aβ 1-40 fibrils in vitro, AVG). For the same compound, the “Bmax 1” value in data set [1] (site 1) turned out to be 0.9099 pmol/nmol Ab. The “Bmax 2” value in data set [1] (site 2) was 4.298 pmol/nmol Ab. The equilibrium dissociation constant (Kd) (commonly a measure of binding affinity in units of concentration) in data set [1] (site 1, read-out: Kd 1) was found to be 0.00533 µM; in data set [1] (site 2, read-out: Kd 2) it was 0.0633 µM.

For `CN(C)c1ccc(-c2nc3ccc(I)cc3o2)cc1` [IBOX], in data set [2] (compared with TZDM), the brain entrance entry is “relatively higher brain entrance”. Further, the “clearance from normal brain tissue” value in data set [2] (compared with related analogues) is given as “relatively more rapid clearance from normal brain tissue”.
